Where two headings read alike, the source gives them in different places.
Legend:
[1] = tested on: durch elektrische Reizung des Nervus laryngeus Husten; assay: Antitussive effect, cough induced in cats by electrical stimulation of the Nervus laryngeus; assay type: in vivo, Katzen; details: for ED50: Felis catus, po, cough by electrical stimulation, p.o., p <0,001, read-out: ED₅₀ (±S.D.)
Excerpt: Die hustenlindernde Wirkung der Verbindung Ia wurde an Katzen untersucht, an denen durch elektrische Reizung des Nervus laryngeus Husten ausgelöst worden war (R. Domenjoz, Arch. Exp. Path. 1952, 19). Die zu untersuchenden Verbindungen wurden i.v. beziehungsweise mit Schlundsonde p.o. verabreicht. […] Tabelle 1

[2] = tested on: durch einen 15 %-igen Citronensäurespray hervorgerufenem Husten; assay: Antitussive effect, cough induced in guinea pigs by 15 % citric acid spray; assay type: in vivo, Meerschweinchen; details: Cavia porcellus, po, 1 h, read-out: ED₅₀ (±S.D.)
Excerpt: Die hustenlindernde Wirkung wurde auch an Meerschweinchen untersucht, an denen die Dämpfung des durch einen 15 %-igen Citronensäurespray ausgelösten Hustens bestimmt wurde (I. Erdély, L. Tardos, Arzneim. Forsch. 1966, 617). Die hustenlindernden Mittel wurden eine Stunde vor der Messung oral verabreicht. Auch in diesem Test erwies sich die Verbindung Ia als starkes Hustenlinderungsmittel; ihre Wirkung übertraf die der Referenzsubstanzen (Tabelle 2). Tabelle 2

Mäusen [3] = assay: Acute oral toxicity in mice; details: p.o.
[4] = tested on: durch Histamin ausgelösten Anstiegs des Widerstands der Luftwege; assay: Inhibition of the histamine-induced rise in airway resistance in cats; assay type: in vivo, Katzen; details: for Wirkungsmaximum: 3 µg/kg histamine i.v., 4 mg/kg substance intraduodenal, measured minute 10 to 120; for rel.Wirkungsstärke: relative to Theophyllin = 1,00
Excerpt: Die Hemmung des durch Histamin ausgelösten Anstiegs des Widerstands der Luftwege wurde an Katzen untersucht (M.A. Wassermann, D.W. Du Charme, Prostaglandins, 1977, 255).
Minute gemessen. […] Tabelle 4

[5] = tested on: isolierten glatten Luftröhrenmuskel des Meerschweinchens; assay: Inhibition of the constrictor effect of histamine on isolated tracheal smooth muscle; assay type: cell-based, Meerschweinchen; details: against histamine, isolated guinea pig tracheal smooth muscle; for EC50: cumulative dose series, read-out: p d 2 (converted)
Excerpt: Am glatten Luftröhrenmuskel des Meerschweinchens ist die Wirkung der Verbindung Ia der des Theophyllins ähnlich, wenn die Wirkung gegen Histamin in einer kumulativen Dosisreihe untersucht wird (Tabelle 3). Tabelle 3

[6] = Absorption after oral administration; assay type: in vivo; details: without salt formation
[7] = tested on: Zentralnervensystem und das Herz; assay: Respiratory depression and side effects on central nervous system and heart; assay type: in vivo
[8] = tested on: sensibilisierten Meerschweinchen; assay: Experimental asthma (anaphylaxis): airway resistance in ovalbumin-sensitised guinea pigs after intratracheal ovalbumin; assay type: in vivo; details: for δ (Änderung des Beatmungswiderstands): deviation from own value after dosing
Protocol: Die Meerschweinchen wurden durch eine einmalige Gabe von 1 µg/kg Ovalbumin i.v. sensibilisiert (Andersson, Brattsand, Br. J. Pharmacol. 1982, 139) und bekamen nach 40 Tagen die zu untersuchenden Verbindungen in einer Dosis von 10 mg/kg i.v. Die narkotisierten, muskelrelaxierten und künstlich beatmeten Tiere erhielten 3 mg/kg Ovalbumin intratracheal, und zu unterschiedlichen Zeitpunkten wurde gemessen, wie stark die zu untersuchenden Verbindungen den Anstieg des Widerstandes der Luftwege zu kompensieren vermochten.
Nach Narkose Präparation und Verabreichung eines Muskelrelaxans Beatmung 1. Messung: 5 min nach Injizierung von 10 mg/kg Wirkstoff, dann intratracheale Provokation (Minute 0) 2. Messung: 3 min nach intratrachealer Provokation 3. Messung: 6 min nach intratrachealer Provokation 4. Messung: 12 min nach intratrachealer Provokation 5. Messung: 24 min nach intratrachealer Provokation.
Die Beatmung erfolgte mit positivem Druck bei einer Frequenz von 90/min und einem Volumen von 3 ml.
Die Kontrollgruppe erhielt physiologische Kochsalzlösung. Der Wert δ ist die Abweichung von dem eigenen, nach der Verabreichung der Dosis von 10 mg/kg Wirkstoff gemessenen Wert (Eigenkontrolle).

Mäusen [9] = details: in vivo
Water solubility = assay type: physicochemical
[10] = 10 mg/kg i.v., 3 min after intratracheal ovalbumin
[11] = 10 mg/kg i.v., 6 min after intratracheal ovalbumin
[12] = 10 mg/kg i.v., 12 min after intratracheal ovalbumin
[13] = 10 mg/kg i.v., 24 min after intratracheal ovalbumin

Q: Which ED50 [1] does the source give for `COc1ccc2c3c1O[C@H]1[C@@H](O)C=C[C@H]4[C@@H](C2)N(C)CC[C@@]341.Cl` [Codeïn HCl] here?
A: 4.33 mg/kg

Q: What about the ED50 [2] of the same compound?
A: 12.8 mg/kg

Q: What about the DL₅₀ (Mäusen [3]) of the same compound?
A: 359,2 mg/kg

Q: For `COc1ccc2c(c1)[C@]13CCCC[C@@H]1[C@H](C2)N(C)CC3` [Dextromethorphan HBr], which ED50 [2] is on record?
A: 5.26 mg/kg

Q: And the DL₅₀ (Mäusen [3])?
A: 165,9 mg/kg

Q: Which results are given for `Cn1c(=O)c2[nH]cnc2n(C)c1=O` [Theophyllin, reference compound]?
A: Wirkungsmaximum [4]: 15,7; rel.Wirkungsstärke ([4]; 4 mg/kg intraduodenal): 1,00; EC50 [5]: 4.17 µM; Emax [5]: 44%

Q: With `Cc1nc(Cn2cnc3[nH]c(=O)n(C)c(=O)c32)no1` [Verbindung Ia, 1-Methyl-7-(5-methyl-1,2,4-oxadiazol-3-yl)-methyl-3,7-dihydro-3H-purin-2,6-dion] as the compound, how does the Wirkungsmaximum [4] read?
A: 28,2

Q: And the “Dauer der Wirkung” value ([4]; 4 mg/kg intraduodenal, compared with Theophyllin)?
A: hielt längere Zeit an

Q: And the rel.Wirkungsstärke ([4]; 4 mg/kg intraduodenal)?
A: 1,79

Q: What about the Resorption [6] of the same compound?
A: ausgezeichnet und schnell resorbiert

Q: What about the ED50 [1] of the same compound?
A: 3.74 mg/kg

Q: What about the “hustenlindernde Wirkung” value ([1]; i.v. and p.o.) of the same compound?
A: bedeutende hustenlindernde Wirkung

Q: What about the “Zeitdauer der Wirkung” value ([1]; i.v. and p.o., compared with reference substances) of the same compound?
A: länger als die der Referenzsubstanzen

Q: What about the EC50 [5] of the same compound?
A: 3.31 µM

Q: And the Emax [5]?
A: 36%

Q: What about the “atmungsdämpfende Wirkung” value ([7]; in contrast to the reference substances) of the same compound?
A: keine atmungsdämpfende Wirkung

Q: And the “unerwünschte Nebenwirkungen auf das Zentralnervensystem und das Herz” value ([7]; side effects characteristic of Theophyllin)?
A: nicht aufweist

Q: What about the ED50 ([2]; guinea pigs, 15 % citric acid spray, one hour after p.o. administration, p <0,001) of the same compound?
A: 3.04 mg/kg

Q: What about the “Beatmungswiderstand R” value [8, 10] of the same compound?
A: 9,21±0,84 Pa/ml/s

Q: What about the “δ (Änderung des Beatmungswiderstands)” value [8, 10] of the same compound?
A: 1,14±0,77 Pa/ml/s

Q: What about the “Beatmungswiderstand R” value [8, 11] of the same compound?
A: 9,41±0,91 Pa/ml/s

Q: What about the “δ (Änderung des Beatmungswiderstands)” value [8, 11] of the same compound?
A: 1,34±0,96 Pa/ml/s

Q: What about the “Beatmungswiderstand R” value [8, 12] of the same compound?
A: 10,10±0,94 Pa/ml/s

Q: And the “δ (Änderung des Beatmungswiderstands)” value [8, 12]?
A: 2,03±0,44 Pa/ml/s

Q: And the “Beatmungswiderstand R” value [8, 13]?
A: 9,92±1.11 Pa/ml/s

Q: And the “δ (Änderung des Beatmungswiderstands)” value [8, 13]?
A: 1,85±0,64 Pa/ml/s

Q: And the “Beatmungswiderstand R” value ([8]; nach 10 mg i.v. (5 min after injection, before intratracheal ovalbumin provocation))?
A: 8,07±0,93 Pa/ml/s

Q: And the “therapeutischer Index” value (Mäusen [9])?
A: um mehr als eine Größenordnung besser als der der Referenzsubstanzen

Q: And the DL₅₀ (Mäusen [9]; mouse, po)?
A: > 2000 mg/kg

Q: What about the Wasserlöslichkeit (Water solubility) of the same compound?
A: mäßigen Wasserlöslichkeit

From patent publication EP0488079A1, “Oxadiazolylmethylpurines, their preparation, and their pharmaceutical use” (CHINOIN Gyògyszer és Vegyészeti Termékek Gyára RT., priority 1990, dated 1992)
